Experimental data as given in PubChem BioAssay (NCI).
Values joined by “and” are separate entries in the source; they are usually repeats but may differ in a detail not shown here. Equal entries are not always repeated.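 96-well plates; 48 h exposure; 5 concentrations. Endpoints by linear interpolation between flanking doses. Not reached: highest tested concentration assigned. GI50 = concentration required for 50% inhibition of growth. Definition used: TGI = concentration required for complete inhibition of growth.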

Legend:
Assay in all cases: NCI-60 cell line screen, 48 h
HCT-15 colon = tested on: HCT-15 colon
COLO 205 colon = tested on: COLO 205 colon
IGROV1 ovarian = tested on: IGROV1 ovarian
T-47D breast = tested on: T-47D breast
OVCAR-8 ovarian = tested on: OVCAR-8 ovarian
SN12C renal = tested on: SN12C renal
EKVX NSCLC = tested on: EKVX NSCLC
K-562 leukemia = tested on: K-562 leukemia
HCC-2998 colon = tested on: HCC-2998 colon
UO-31 renal = tested on: UO-31 renal

Compound	GI50 (HCT-15 colon)	TGI (HCT-15 colon)	GI50 (COLO 205 colon)	TGI (COLO 205 colon)	GI50 (IGROV1 ovarian) [µM]	TGI (IGROV1 ovarian)	GI50 (T-47D breast)	TGI (T-47D breast)	GI50 (OVCAR-8 ovarian)	TGI (OVCAR-8 ovarian)	GI50 (SN12C renal) [µM]	TGI (SN12C renal)	GI50 (EKVX NSCLC)	TGI (EKVX NSCLC)	GI50 (K-562 leukemia)	TGI (K-562 leukemia)	GI50 (HCC-2998 colon)	TGI (HCC-2998 colon)	GI50 (UO-31 renal)	TGI (UO-31 renal)
CNC(=O)c1ccc(Nc2nc(OC3CCCC3)c3c(-c4ccc5nc(C)oc5c4)c[nH]c3n2)c(OC)c1	0.0689 µM	> 100 µM	0.208 µM	> 100 µM	0.448	> 100 µM	0.907 µM	> 100 µM	0.6 µM	> 100 µM	1.32	> 100 µM	> 100 µM	> 100 µM	0.746 µM	> 100 µM	> 100 µM	> 100 µM	2.97 µM	> 100 µM
Cc1cc2c(cc1C)[n+](=O)c(C(=O)c1cccs1)c(C(F)(F)F)n2[O-]	5.27 µM and 3.56 µM	26 µM and 56 µM	5.36 µM and 4.94 µM	41.1 µM and 22.6 µM	0.683	5.31 µM	7.74 µM and 4.47 µM	50 µM and 29.8 µM	1.67 µM and 2.02 µM	50 µM and 6.61 µM	1.31	6.59 µM	0.915 µM and 1.17 µM	3.22 µM and 4.15 µM	1.43 µM and 2.81 µM	50 µM and 16.3 µM	6.86 µM and 2.08 µM	20.9 µM and 5.24 µM	1.49 µM and 1.07 µM	5.83 µM and 2.34 µM
COc1cc(/C=C/C(=O)CC(=O)/C=C/c2ccc(OC(=O)CCNC34CC5CC(CC(C5)C3)C4)c(OC)c2)ccc1OC(=O)CCNC12CC3CC(CC(C3)C1)C2	4.49 µM	17.6 µM	4.71 µM	20.8 µM	3.52	8.08 µM	5.89 µM	59.8 µM	3.71 µM	13.4 µM	3.32	17.8 µM	4.41 µM	12.9 µM	4.41 µM	> 100 µM	1.93 µM	4.37 µM	3.45 µM	14.8 µM
O=C1C=CC(=O)N1c1ccc2c(c1)Cc1cc(NC(=O)C(F)(F)F)ccc1-2		26.9 µM		26 µM		32.3 µM		53.2 µM		34.6 µM		32.1 µM		29.3 µM		59.6 µM		> 58.9 µM		28.4 µM
COc1cc(/C=C2\C[C@H]3[C@@H]4CC=C5C[C@@H](OC(C)=O)CC[C@]5(C)[C@H]4CC[C@]3(C)[C@H]2OC(C)=O)ccc1OCCCn1ccnc1	7.5 µM	16 µM	11.6 µM	38.5 µM	16.8	> 50 µM	16 µM	> 50 µM	10.7 µM	24.7 µM	8.84	21.9 µM	9.49 µM	20 µM	5.59 µM	19.7 µM	9.47 µM	17.7 µM	12.7 µM	> 34 µM
C=C1C(=O)O[C@H]2[C@H]1CC/C(COC(=O)NCCc1c[nH]c3ccccc13)=C\CC[C@@]1(C)O[C@@H]21	1.23 µM	2.81 µM	1.36 µM	3.09 µM	1.09	2.9 µM	1.7 µM	4.41 µM	1.86 µM	5.21 µM	1.2	3.15 µM	1.51 µM	3.57 µM	0.503 µM	10.4 µM	1.67 µM	3.18 µM	1.43 µM	2.73 µM
Cc1cc(-c2cc(C)c(O)c(C(C)(C)C)c2)cc(C(C)(C)C)c1O	5.13 µM and 10.8 µM	18.1 µM and 23.5 µM		23.1 µM and 28.9 µM		41.6 µM and 24.3 µM		20.1 µM and 20.7 µM		31.5 µM and 26.1 µM		24.8 µM and 26.2 µM		22.7 µM and 28.4 µM		25.4 µM and 37.5 µM		15.4 µM and 18.7 µM		23 µM and 32 µM
O=C(CSc1nc2sc3c(c2c(=O)n1-c1ccccc1)CCCCC3)N/N=C/c1ccc(F)cc1	3.77 µM	> 100 µM	1.58 µM	3.64 µM	3.32	19.2 µM	2.34 µM	24.6 µM	1.58 µM	5.19 µM	1.99	6.9 µM	11.3 µM	41.7 µM	5.48 µM	> 100 µM	49.5 µM	> 100 µM	3.77 µM	> 100 µM
C=C1C(=O)O[C@H]2[C@H]1CC/C(COC(=O)N[C@@H](Cc1c[nH]c3ccccc13)C(=O)OC)=C\CC[C@@]1(C)O[C@@H]21	1.45 µM	3.91 µM	1.73 µM	3.4 µM	1.22	2.67 µM	1.84 µM	4.39 µM	2.62 µM	10.3 µM	1.37	3.1 µM	1.78 µM	4.43 µM	0.362 µM	5.18 µM	1.95 µM	4.01 µM	1.45 µM	2.76 µM
